These are literature values, as cited in patent US6071508A, “Preparation of formulations for electrotransport drug delivery” (Alza Corporation, priority 1997, dated 2000).

SMILES strings stand for the structures. Where a name gives a salt, the structure may show the parent alone. Bounds are passed on as bounds.

The conditions of this data set: known value.

Consider `c1ccc2c(c1)CC[C@H](CNCCCNC1=NCCCN1)O2` [drug salt of Example 1, (-)-(R)-N-[(3,4-dihydro-2H-1-benzopyran-2-yl)methyl]-N'-(1,4,5,6-tetrahydropyrimidinyl)-1,3-propanediamine dihydrochloride], for which the “pKa, pyrimidinamine functionality” value is given as > 11.0 and the “pKa, secondary amine group” value was 8.3.
